Source: ChEMBL document CHEMBL1201862, “PubChem BioAssay data set” (2004)
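Assay format: 96-well plates, 48-hour exposure. At the GI50, growth is halved.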 Activity calls are given as the source filed them. No stated cut-off is given here; in the data, active = GI50 up to about 1.1 µM and inactive = higher.

Columns and labels:
Assay in all cases: NCI anticancer screen, dose series, 48 h
MCF7 = tested on: MCF7
NCI/ADR-RES = tested on: NCI/ADR-RES
786-0 = tested on: 786-0
SK-MEL-2 = tested on: SK-MEL-2
SF-268 = tested on: SF-268
SNB-19 = tested on: SNB-19
HCT-116 = tested on: HCT-116
NCI-H460 = tested on: NCI-H460
SNB-75 = tested on: SNB-75
NCI-H522 = tested on: NCI-H522
HL-60 = tested on: HL-60
ACHN = tested on: ACHN
DU-145 = tested on: DU-145
CAKI-1 = tested on: CAKI-1
BT-549 = tested on: BT-549
NCI-H23 = tested on: NCI-H23
OVCAR-8 = tested on: OVCAR-8
RPMI-8226 = tested on: RPMI-8226
LOX IMVI = tested on: LOX IMVI
MDA-N = tested on: MDA-N
MOLT-4 = tested on: MOLT-4
CCRF-CEM = tested on: CCRF-CEM
SF-295 = tested on: SF-295
SR = tested on: SR
SW-620 = tested on: SW-620
UACC-62 = tested on: UACC-62
Malme-3M = tested on: Malme-3M
SF-539 = tested on: SF-539
EKVX = tested on: EKVX
Hs-578T = tested on: Hs-578T
RXF 393 = tested on: RXF 393
HOP-62 = tested on: HOP-62
OVCAR-3 = tested on: OVCAR-3
SK-MEL-28 = tested on: SK-MEL-28
HCC 2998 = tested on: HCC 2998
MDA-MB-435 = tested on: MDA-MB-435
HCT-15 = tested on: HCT-15
NCI-H226 = tested on: NCI-H226
OVCAR-4 = tested on: OVCAR-4
SK-OV-3 = tested on: SK-OV-3
KM12 = tested on: KM12
A549 = tested on: A549
HOP-92 = tested on: HOP-92
TK-10 = tested on: TK-10
UACC-257 = tested on: UACC-257
COLO 205 = tested on: COLO 205
U-251 = tested on: U-251
M14 = tested on: M14
SK-MEL-5 = tested on: SK-MEL-5
HT-29 = tested on: HT-29
PC-3 = tested on: PC-3
K562 = tested on: K562
OVCAR-5 = tested on: OVCAR-5
SN12C = tested on: SN12C
T47D = tested on: T47D
MDA-MB-231 = tested on: MDA-MB-231
IGROV-1 = tested on: IGROV-1
UO-31 = tested on: UO-31
A498 = tested on: A498

## COc1ccc(/C=C/C(=O)/C=C/c2ccc(OC)cc2OC)c(OC)c1
MCF7
  GI50: 2.4 µM (inactive)
NCI/ADR-RES
  GI50: 8.02 µM (inactive)
786-0
  GI50: 5.81 µM (inactive)
SK-MEL-2
  GI50: 1.33 µM (inactive)
SF-268
  GI50: 4.55 µM (inactive)
SNB-19
  GI50: 12.6 µM (inactive)
HCT-116
  GI50: 4.34 µM (inactive)
NCI-H460
  GI50: 5.08 µM (inactive)
SNB-75
  GI50: 14.9 µM (inactive)
NCI-H522
  GI50: 2.41 µM (inactive)
HL-60
  GI50: 3.13 µM (inactive)
ACHN
  GI50: 6.61 µM (inactive)
DU-145
  GI50: 12.4 µM (inactive)
CAKI-1
  GI50: 5.35 µM (inactive)
BT-549
  GI50: 4.34 µM (inactive)
NCI-H23
  GI50: 10.2 µM (inactive)
OVCAR-8
  GI50: 11.6 µM (inactive)
RPMI-8226
  GI50: 3.71 µM (inactive)
LOX IMVI
  GI50: 3.63 µM (inactive)
MDA-N
  GI50: 2.22 µM (inactive)
MOLT-4
  GI50: 4.8 µM (inactive)
CCRF-CEM
  GI50: 2.92 µM (inactive)
SF-295
  GI50: 24.7 µM (inactive)
SR
  GI50: 3.64 µM (inactive)
SW-620
  GI50: 5.32 µM (inactive)
UACC-62
  GI50: 5.6 µM (inactive)
Malme-3M
  GI50: 4.19 µM (inactive)
SF-539
  GI50: 15.8 µM (inactive)
EKVX
  GI50: 9.08 µM (inactive)
Hs-578T
  GI50: 26.3 µM (inactive)
RXF 393
  GI50: 3.24 µM (inactive)
HOP-62
  GI50: 44.5 µM (inactive)
OVCAR-3
  GI50: 2.76 µM (inactive)
SK-MEL-28
  GI50: 4.83 µM (inactive)
HCC 2998
  GI50: 3.23 µM (inactive)
MDA-MB-435
  GI50: 2.41 µM (inactive)
HCT-15
  GI50: 3.75 µM
NCI-H226
  GI50: 12.9 µM (inactive)
OVCAR-4
  GI50: 12.3 µM (inactive)
SK-OV-3
  GI50: 7.35 µM (inactive)
KM12
  GI50: 33.8 µM (inactive)
A549
  GI50: 14.4 µM (inactive)
HOP-92
  GI50: 18.6 µM (inactive)
TK-10
  GI50: 14.5 µM (inactive)
UACC-257
  GI50: 1.39 µM (inactive)
COLO 205
  GI50: 5.61 µM (inactive)
U-251
  GI50: 4.67 µM (inactive)
M14
  GI50: 7.14 µM (inactive)
SK-MEL-5
  GI50: 3.77 µM (inactive)
HT-29
  GI50: 2.64 µM (inactive)
PC-3
  GI50: 12.2 µM (inactive)
K562
  GI50: 2.79 µM (inactive)
OVCAR-5
  GI50: 4.01 µM (inactive)
SN12C
  GI50: 18.6 µM (inactive)
T47D
  GI50: 4.47 µM (inactive)
MDA-MB-231
  GI50: 29.9 µM (inactive)
IGROV-1
  GI50: 10.1 µM (inactive)
UO-31
  GI50: 13.6 µM (inactive)

## OCCCCn1cc(Cn2ncc3c(NCc4ccccc4)ncnc32)nn1
MCF7
  GI50: > 100 µM (inactive)
NCI/ADR-RES
  GI50: > 100 µM (inactive)
786-0
  GI50: > 100 µM (inactive)
SK-MEL-2
  GI50: > 100 µM (inactive)
SF-268
  GI50: > 100 µM (inactive)
SNB-19
  GI50: > 100 µM (inactive)
HCT-116
  GI50: > 100 µM (inactive)
NCI-H460
  GI50: > 100 µM (inactive)
NCI-H522
  GI50: > 100 µM (inactive)
ACHN
  GI50: > 100 µM (inactive)
DU-145
  GI50: > 100 µM (inactive)
CAKI-1
  GI50: > 100 µM (inactive)
BT-549
  GI50: > 100 µM (inactive)
NCI-H23
  GI50: > 100 µM (inactive)
OVCAR-8
  GI50: > 100 µM (inactive)
RPMI-8226
  GI50: > 100 µM (inactive)
LOX IMVI
  GI50: > 100 µM (inactive)
MDA-N
  GI50: 42.8 µM (inactive)
MOLT-4
  GI50: 53.1 µM (inactive)
CCRF-CEM
  GI50: > 100 µM (inactive)
SF-295
  GI50: > 100 µM (inactive)
SR
  GI50: 15.9 µM (inactive)
SW-620
  GI50: > 100 µM (inactive)
UACC-62
  GI50: > 100 µM (inactive)
Malme-3M
  GI50: > 100 µM (inactive)
SF-539
  GI50: > 100 µM (inactive)
EKVX
  GI50: > 100 µM (inactive)
A498
  GI50: > 100 µM (inactive)
Hs-578T
  GI50: > 100 µM (inactive)
RXF 393
  GI50: > 100 µM (inactive)
HOP-62
  GI50: > 100 µM (inactive)
OVCAR-3
  GI50: > 100 µM (inactive)
SK-MEL-28
  GI50: > 100 µM (inactive)
HCC 2998
  GI50: > 100 µM (inactive)
MDA-MB-435
  GI50: 33.7 µM (inactive)
HCT-15
  GI50: > 100 µM
NCI-H226
  GI50: > 100 µM (inactive)
OVCAR-4
  GI50: > 100 µM (inactive)
SK-OV-3
  GI50: > 100 µM (inactive)
KM12
  GI50: > 100 µM (inactive)
A549
  GI50: > 100 µM (inactive)
HOP-92
  GI50: > 100 µM (inactive)
TK-10
  GI50: > 100 µM (inactive)
UACC-257
  GI50: > 100 µM (inactive)
COLO 205
  GI50: > 100 µM (inactive)
U-251
  GI50: > 100 µM (inactive)
M14
  GI50: > 100 µM (inactive)
SK-MEL-5
  GI50: > 100 µM (inactive)
HT-29
  GI50: > 100 µM (inactive)
PC-3
  GI50: > 100 µM (inactive)
K562
  GI50: 44.3 µM (inactive)
OVCAR-5
  GI50: > 100 µM (inactive)
SN12C
  GI50: > 100 µM (inactive)
T47D
  GI50: 66.1 µM (inactive)
MDA-MB-231
  GI50: > 100 µM (inactive)
IGROV-1
  GI50: > 100 µM (inactive)
UO-31
  GI50: > 100 µM (inactive)
